The record followed here is patent US20240327412A1, “FACTOR XIIA INHIBITORS” (KALVISTA PHARMACEUTICALS LIMITED, priority 2021, published 2024).

This assay deals with T1, Human Factor XIIa (Homo sapiens, UniProt P00748).
T1 construct: Proteolytic cleavage of FXII to heavy and light chains of FXIIa dramatically increases catalytic activity; purchased Enzyme Research Laboratories
T1 sequence (P00748 373-615 limits assumed): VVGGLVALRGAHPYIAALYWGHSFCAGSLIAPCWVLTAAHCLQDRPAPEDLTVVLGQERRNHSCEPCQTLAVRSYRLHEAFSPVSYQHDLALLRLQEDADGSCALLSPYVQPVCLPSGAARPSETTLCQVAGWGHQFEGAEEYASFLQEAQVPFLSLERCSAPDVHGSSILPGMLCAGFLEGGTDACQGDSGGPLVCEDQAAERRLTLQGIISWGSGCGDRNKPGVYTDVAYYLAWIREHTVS
T1 sequence (P00748 20-372 partner limits assumed): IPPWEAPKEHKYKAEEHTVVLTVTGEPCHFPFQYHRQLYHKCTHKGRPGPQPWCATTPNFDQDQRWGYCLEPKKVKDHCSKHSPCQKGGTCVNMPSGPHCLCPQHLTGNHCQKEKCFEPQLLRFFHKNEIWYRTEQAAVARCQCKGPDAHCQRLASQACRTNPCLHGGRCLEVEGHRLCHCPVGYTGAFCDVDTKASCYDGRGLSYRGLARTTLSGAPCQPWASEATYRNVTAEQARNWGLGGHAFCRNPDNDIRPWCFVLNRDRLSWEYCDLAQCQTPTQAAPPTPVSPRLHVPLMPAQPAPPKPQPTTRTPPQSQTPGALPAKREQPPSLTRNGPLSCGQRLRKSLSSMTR
As to the kind of experiment: Determination of FXIIa inhibition (fluorogenic substrate H-DPro-Phe-Arg-AFC, IC50 assay). The class given is biochemical. Conditions: substrate at Km concentration, 25° C.; category scale; read-out: Human FXII IC50 (nm). As to the method: In vitro inhibition of Factor XIIa was determined using an IC50 assay based on standard literature methods (see e.g Baeriswyl et al., ACS Chem. Biol., 2015, 10 (8) 1861; Bouckaert et al., European Journal of Medicinal Chemistry 110 (2016) 181). Human Factor XIIa (Enzyme Research Laboratories) was incubated at 25° C. with the fluorogenic substrate H-DPro-Phe-Arg-AFC (Peptide Protein Science) and various concentrations of the test compound. Protease activity was measured by monitoring the accumulation of liberated fluorescence from the substrate over 5 min at 25° C. The linear rate of fluorescence increase per minute was expressed as percentage (%) activity. The Km for the cleavage of the substrate by FXIIa was determined by standard transformation of the Michaelis-Menten equation. The compound inhibitor assays were performed at substrate Km concentration. IC50 values were calculated as the concentration of inhibitor giving 50% inhibition (IC50) of the uninhibited enzyme activity (100%).
On to `Cn1ccc(OCC23CN(c4ncc(-c5ccccc5)cn4)C(CNc4cccc5c(N)nccc45)(C2)C3)cc1=O` [Example 12060, 4-((1-(((1-Aminoisoquinolin-5-yl)amino)methyl)-2-(5-phenylpyrimidin-2-yl)-2-azabicyclo[2.1.1]hexan-4-yl)methoxy)-1-methylpyridin-2(1H)-one], for which the IC50 – broadly, the midpoint of a concentration-inhibition curve – fell in the range of 1 to 10 nM.

For the compound `COc1ccccc1NC(=O)N1CC2(COc3ccn(C)c(=O)c3)CC1(CNc1cccc3c(N)nccc13)C2` [Example 12059, 1-(((1-aminoisoquinolin-5-yl)amino)methyl)-N-(2-methoxyphenyl)-4-(((1-methyl-2-oxo-1,2-dihydropyridin-4-yl)oxy)methyl)-2-azabicyclo[2.1.1]hexane-2-carboxamide], the concentration for half-maximal inhibition (IC50) lay in the range of 10 to 100 nM.

Regarding `Cn1ccc(OCC23CN(C(=O)CCc4cccc(Br)c4)C(CNc4cccc5c(N)nccc45)(C2)C3)cc1=O` [Example 12053, 4-((1-(((1-aminoisoquinolin-5-yl)amino)methyl)-2-(3-(3-bromophenyl)propanoyl)-2-azabicyclo[2.1.1]hexan-4-yl)methoxy)-1-methylpyridin-2(1H)-one], the IC50 was 10 to 100 nM.

Take `Nc1nccc2c(NCC34CC(COc5ccon5)(CCO3)C4)cccc12` [Example 10936, N5-((5-((isoxazol-3-yloxy)methyl)-2-oxabicyclo[3.1.1]heptan-1-yl)methyl)isoquinoline-1,5-diamine]: the IC50 was in the range of 3000 to 10000 nM.

Turning to `Cn1ccc(OCC23CN(C(=O)OCc4ccccc4Cl)C(CNc4cccc5c(N)nccc45)(C2)C3)cc1=O` [Example 12023, 2-chlorobenzyl 1-(((1-aminoisoquinolin-5-yl)amino)methyl)-4-(((1-methyl-2-oxo-1,2-dihydropyridin-4-yl)oxy)methyl)-2-azabicyclo[2.1.1]hexane-2-carboxylate], the IC50 was in the range of 10 to 100 nM.

Regarding `Cn1ccc(OCC23CN(C(=O)OCc4ccccc4)C(CNc4ccnc5[nH]c(Cl)cc45)(C2)C3)cc1=O` [Example 12025, benzyl 1-(((2-chloro-1H-pyrrolo[2,3-b]pyridin-4-yl)amino)methyl)-4-(((1-methyl-2-oxo-1,2-dihydropyridin-4-yl)oxy)methyl)-2-azabicyclo[2.1.1]hexane-2-carboxylate], the half-inhibitory concentration (IC50) is 1000 to 3000 nM.

`Nc1nccc2c(NCC34CC(COc5ccn(C(F)F)c(=O)c5)(CCO3)C4)cccc12` [Example 10975, 4-((1-(((1-aminoisoquinolin-5-yl)amino)methyl)-2-oxabicyclo[3.1.1]heptan-5-yl)methoxy)-1-(difluoromethyl)pyridin-2(1H)-one]: the IC50 lay in the range of 300 to 1000 nM.

With `Cn1ccc(OCC23CC(CNc4cccc5c(N)nccc45)(CN2C(=O)OCc2cccnc2)C3)cc1=O` [Example 13009, Pyridin-3-ylmethyl4-(((1-aminoisoquinolin-5-yl)amino)methyl)-1-(((1-methyl-2-oxo-1,2-dihydropyridin-4-yl)oxy)methyl)-2-azabicyclo[2.1.1]hexane-2-carboxylate], the concentration for half-maximal inhibition (IC50) lay within 10 to 100 nM.

As to `Nc1nccc2c(NCC34CC(COc5ccc6c(c5)CCNC6=O)(CO3)C4)cccc12` [Example 6637, 6-((1-(((1-aminoisoquinolin-5-yl)amino)methyl)-2-oxabicyclo[2.1.1]hexan-4-yl)methoxy)-3,4-dihydroisoquinolin-1(2H)-one], the concentration for half-maximal inhibition (IC50) is 100 to 300 nM.

Consider `Nc1nccc2c(NCC34CC(COc5ccc6ncc(C(F)F)n6c5)(CO3)C4)cccc12` [Example 6644, 5-N-[[4-[[3-(Difluoromethyl)imidazo[1,2-a]pyridin-6-yl]oxymethyl]-2-oxabicyclo[2.1.1]hexan-1-yl]methyl]isoquinoline-1,5-diamine], for which the half-inhibitory concentration (IC50) fell in the range of 300 to 1000 nM.

`Cn1ccc(OCC23CC(CNc4cccc5c(N)nccc45)(CN2C(=O)Oc2ccccc2Cl)C3)cc1=O` [Example 13004, 2-chlorophenyl 4-(((1-aminoisoquinolin-5-yl)amino)methyl)-1-(((1-methyl-2-oxo-1,2-dihydropyridin-4-yl)oxy)methyl)-2-azabicyclo[2.1.1]hexane-2-carboxylate]: the IC50 lay within 100 to 300 nM.

Consider `CC(C)n1ccc(OCC23CCOC(CNc4cccc5c(N)nccc45)(C2)C3)cc1=O` [Example 10934, 4-((1-(((1-aminoisoquinolin-5-yl)amino)methyl)-2-oxabicyclo[3.1.1]heptan-5-yl)methoxy)-1-isopropylpyridin-2(1H)-one], for which the concentration for half-maximal inhibition (IC50) lay in the range of 300 to 1000 nM.

In the case of `Nc1nccc2c(NCC34CC(COc5ccncn5)(CCO3)C4)cccc12` [Example 10937, N5-((5-((pyrimidin-4-yloxy)methyl)-2-oxabicyclo[3.1.1]heptan-1-yl)methyl)isoquinoline-1,5-diamine], the IC50 is 3000 to 10000 nM.

With `COc1ccncc1OCC12CCOC(CNc3cccc4c(N)nccc34)(C1)C2` [Example 10954, N5-((5-(((4-methoxypyridin-3-yl)oxy)methyl)-2-oxabicyclo[3.1.1]heptan-1-yl)methyl)isoquinoline-1,5-diamine], the IC50 is 3000 to 10000 nM.

Take `Nc1nccc2c(NCC34CC(COc5ccn6c(C(F)(F)F)cnc6c5)(CCO3)C4)cccc12` [Example 10932, N5-((5-(((3-(trifluoromethyl)imidazo[1,2-a]pyridin-7-yl)oxy)methyl)-2-oxabicyclo[3.1.1]heptan-1-yl)methyl)isoquinoline-1,5-diamine]: the half-inhibitory concentration (IC50) is 100 to 300 nM.

Turning to `Nc1nccc2c(NCC34CC(COc5cccc(N6CCCC6=O)c5)(CO3)C4)cccc12` [Example 6653, 1-(3-((1-(((1-aminoisoquinolin-5-yl)amino)methyl)-2-oxabicyclo[2.1.1]hexan-4-yl)methoxy)phenyl)pyrrolidin-2-one], the IC50 is 300 to 1000 nM.

As to `Cn1ccc(OCC23CN(C(=O)OC(C)(C)C)C(CNc4ccc5cnccc5c4)(C2)C3)cc1=O` [Example 12045, tert-butyl 1-((isoquinolin-6-ylamino)methyl)-4-(((1-methyl-2-oxo-1,2-dihydropyridin-4-yl)oxy)methyl)-2-azabicyclo[2.1.1]hexane-2-carboxylate], the half-inhibitory concentration (IC50) was in the range of 10000 to 40000 nM.

Regarding `COc1cccc(CCC(=O)N2CC3(COc4ccn(C)c(=O)c4)CC2(CNc2cccc4c(N)nccc24)C3)c1` [Example 12042, 4-((1-(((1-aminoisoquinolin-5-yl)amino)methyl)-2-(3-(3-methoxyphenyl)propanoyl)-2-azabicyclo[2.1.1]hexan-4-yl)methoxy)-1-methylpyridin-2(1H)-one], the IC50 lay within 10 to 100 nM.

With `Nc1nccc2c(NCC34CC(COc5ccccc5N5CCCC5=O)(CO3)C4)cccc12` [Example 6654, 1-(2-((1-(((1-aminoisoquinolin-5-yl)amino)methyl)-2-oxabicyclo[2.1.1]hexan-4-yl)methoxy)phenyl)pyrrolidin-2-one], the half-maximal inhibitory concentration (IC50) lay within 10000 to 40000 nM.

For the compound `Cc1cnc2cc(OCC34CCOC(CNc5cccc6c(N)nccc56)(C3)C4)ccn12` [Example 10930, N5-((5-(((3-methylimidazo[1,2-a]pyridin-7-yl)oxy)methyl)-2-oxabicyclo[3.1.1]heptan-1-yl)methyl)isoquinoline-1,5-diamine], the IC50 was 10 to 100 nM.

As for `Cn1ccc(OCC23CN(C(=O)Cc4ccc5occc5c4)C(CNc4cccc5c(N)nccc45)(C2)C3)cc1=O` [Example 12034, 4-((1-(((1-Aminoisoquinolin-5-yl)amino)methyl)-2-(2-(benzofuran-5-yl)acetyl)-2-azabicyclo[2.1.1]hexan-4-yl)methoxy)-1-methylpyridin-2(1H)-one], the IC50 fell in the range of 10 to 100 nM.

Take `COc1cc(OCC23COC(CNc4cccc5c(N)nccc45)(C2)C3)cn2ccnc12` [Example 6631, N5-((4-(((8-methoxyimidazo[1,2-a]pyridin-6-yl)oxy)methyl)-2-oxabicyclo[2.1.1]hexan-1-yl)methyl)isoquinoline-1,5-diamine]: the 50% inhibitory concentration (IC50) was in the range of 100 to 300 nM.

With `Cn1ccc(OCC23CC(CNc4cccc5c(N)nccc45)(CN2C(=O)NCc2ccccc2)C3)cc1=O` [Example 13012, 4-(((1-aminoisoquinolin-5-yl)amino)methyl)-N-benzyl-1-(((1-methyl-2-oxo-1,2-dihydropyridin-4-yl)oxy)methyl)-2-azabicyclo[2.1.1]hexane-2-carboxamide], the IC50 was in the range of 10 to 100 nM.

As to `CC(C)c1cc(OCC23COC(CNc4cccc5c(N)nccc45)(C2)C3)cn2ccnc12` [Example 6641, N5-((4-(((8-isopropylimidazo[1,2-a]pyridin-6-yl)oxy)methyl)-2-oxabicyclo[2.1.1]hexan-1-yl)methyl)isoquinoline-1,5-diamine], the concentration for half-maximal inhibition (IC50) was in the range of 100 to 300 nM.
